CCO.C[C@H]1c2cccc(O)c2C(O)=C2C(=O)[C@]3(O)C(O)=C(C(N)=O)C(=O)[C@@H](N(C)C)[C@@H]3[C@@H](O)[C@@H]21.C[C@H]1c2cccc(O)c2C(O)=C2C(=O)[C@]3(O)C(O)=C(C(N)=O)C(=O)[C@@H](N(C)C)[C@@H]3[C@@H](O)[C@@H]21.Cl.Cl.O
solubility (mole fraction) (in ethanol, 278.15 K): 0.00199 | solubility (mole fraction) (in ethanol, 283.15 K): 0.00222 | solubility (mole fraction) (in ethanol, 288.15 K): 0.00248 | solubility (mole fraction) (in ethanol, 293.15 K): 0.00278 | solubility (mole fraction) (in ethanol, 298.15 K): 0.00313 | solubility (mole fraction) (in ethanol, 302.85 K): 0.00327 | solubility (mole fraction) (in ethanol, 307.25 K): 0.00364 | solubility (mole fraction) (in ethanol, 312.95 K): 0.00409 | solubility (mole fraction) (in ethanol, 318.15 K): 0.0047 | solubility (mole fraction) (in ethanol, 323.05 K): 0.00522 | solubility (mole fraction) (in methanol, 278.15 K): 0.0138 | solubility (mole fraction) (in methanol, 283.15 K): 0.015 | solubility (mole fraction) (in methanol, 288.15 K): 0.016 | solubility (mole fraction) (in methanol, 293.15 K): 0.0174 | solubility (mole fraction) (in methanol, 298.15 K): 0.0198 | solubility (mole fraction) (in methanol, 302.85 K): 0.0251 | solubility (mole fraction) (in methanol, 307.25 K): 0.0292 | solubility (mole fraction) (in methanol, 312.95 K): 0.0332 | solubility (mole fraction) (in methanol, 318.15 K): 0.0402 | solubility (mole fraction) (in methanol, 323.05 K): 0.044 | solubility (mole fraction) (in n-propanol, 278.15 K): 0.000862 | solubility (mole fraction) (in n-propanol, 283.15 K): 0.00101 | solubility (mole fraction) (in n-propanol, 288.15 K): 0.00111 | solubility (mole fraction) (in n-propanol, 293.15 K): 0.00133 | solubility (mole fraction) (in n-propanol, 298.15 K): 0.00151 | solubility (mole fraction) (in n-propanol, 303.15 K): 0.00174 | solubility (mole fraction) (in n-propanol, 309.75 K): 0.00222 | solubility (mole fraction) (in n-propanol, 316.65 K): 0.00273 | solubility (mole fraction) (in n-propanol, 322.55 K): 0.00351 | solubility (mole fraction) (in water, 277.55 K): 0.00128 | solubility (mole fraction) (in water, 283.05 K): 0.00132 | solubility (mole fraction) (in water, 287.85 K): 0.0014 | solubility (mole fraction) (in water, 292.95 K): 0.00164 | solubility (mole fraction) (in water, 299.15 K): 0.00214 | solubility (mole fraction) (in water, 302.35 K): 0.00254 | solubility (mole fraction) (in water, 307.45 K): 0.00306 | solubility (mole fraction) (in water, 313.25 K): 0.00405 | solubility (mole fraction) (in water, 317.85 K): 0.00534 | solubility (mole fraction) (in water, 323.05 K): 0.00647
